Source: US5679695A, “Aryl and heteroaryl compounds having anti-retrovirus activity” (The University of Connecticut, priority 1995, dated 1997)
Where “and” joins values, the source holds several entries; their conditions need not be identical. Equal values may be shown once. Read-outs that look alike come from different tables or passages of the source.

Tests used:
Assay type in all cases: cell-based
HIV-1 = test: microbe, parasite or virus in culture; settings: for viability at 17.9 µM: 1.79 × 10^-5 Molar
Protocol: (§1) Another assay for testing the efficacy of the compounds is the procedure* used in the National Cancer Institute's test for agents active against Human Immunodeficiency Virus (HIV). It is designed to detect agents acting at any stage of the virus reproductive cycle. The assay basically involves the killing of T4 lymphocytes by HIV. Small amounts of HIV are added to cells, and a complete cycle of virus reproduction is necessary to obtain the required cell killing. Agents that interact with virions, cells, or virus gene-products to interfere with viral activities will protect cells from cytolysis. The system is automated in several features to accommodate large numbers of candidate agents and is generally designed to detect anti-HIV activity. However, compounds that degenerate, or are rapidly metabolized in the culture conditions may not show activity in this screen. All tests are compared with at least one positive (e.g., AZT-treated) control done at the same time under identical conditions.
(§2) * Weislow. O. W., Kiser, R., Fine, D., Bader, J., Shoemaker, R. H., Boyd, M. R.: New soluble-formazan assay for HIV-1 cytopathic effects: application to high-flux screening of synthetic and natural products for AIDS-antiviral activity. J. Natl. Cancer Inst. 81:577-586, 1989.
(§3) 1. The Candidate agent is dissolved in dimethyl sulfoxide (unless otherwise instructed) then diluted 1:100 in cell culture medium before preparing serial half-log10 dilutions. T4 lymphocytes (CEM cell line) are added and after a brief interval HIV-1 added, resulting in a 1:200 final dilution of the compound. Uninfected cells with the compound serve as a toxicity control, and infected and uninfected cells without compound serve as basic controls.
(§4) 2. Cultures are incubated at 37° in a 5% carbon dioxide atmosphere for 6 days.
(§5) 3. The tetrazolium salt, XTT, is added to all wells, and cultures are incubated to allow formazan color development by viable cells.
(§6) 4. Individual wells are analyzed spectrophotometrically to quantitate formazan production, and in addition are viewed microscopically for detection of viable cells and confirmation of protective activity.
(§7) 5. Drug-treated virus-infected cells are compared with drug-treated noninfected cells and with other appropriate controls (untreated infected and untreated noninfected: cells, drug-containing wells without cells, etc.) on the same plate.
(§8) 6. Data are reviewed in comparison with other tests done at the same time and a determination about activity is made.

[1] = XTT toxicity control, uninfected culture, CEM-Z; settings: human, cem-z cells, read-out: Uninfected culture response
Protocol: as §1, §2, §3, §4, §5, §6, §7, §8

CEM-Z = test: XTT toxicity control, uninfected culture, CEM-Z
Protocol: as §1, §2, §3, §4, §5, §6, §7, §8

## O=[N+]([O-])c1ccccc1S(=O)(=O)c1ccccc1 [Compound 1, 1-Nitro-2-(phenylsulfonyl)benzene]
HIV-1; CEM-V
  Conclusion: ACTIVE
HIV-1; CEM-V, 1.79 × 10^-6 Molar, 1.79 µM
  Infected culture response: 9.3%
HIV-1; CEM-V, 1.79 × 10^-7 Molar, 0.179 µM
  Infected culture response: 8.7%
HIV-1; CEM-V, 1.89 × 10^-4 Molar, 189 µM
  Infected culture response: 87.3%
HIV-1; CEM-V, 1.89 × 10^-5 Molar, 18.9 µM
  Infected culture response: 110.5%
HIV-1; CEM-V, 1.89 × 10^-6 Molar, 1.89 µM
  Infected culture response: 11.4%
HIV-1; CEM-V, 1.90 × 10^-7 Molar, 0.19 µM
  Infected culture response: 12.1%
HIV-1; CEM-V, 5.66 × 10^-6 Molar, 5.66 µM
  Infected culture response: 36.6%
HIV-1; CEM-V, 5.67 × 10^-7 Molar, 0.567 µM
  Infected culture response: 8.3%
HIV-1; CEM-V, 5.68 × 10^-8 Molar, 0.0568 µM
  Infected culture response: 9.4%
HIV-1; CEM-V, 5.98 × 10^-5 Molar, 59.8 µM
  Infected culture response: 95.2%
HIV-1; CEM-V, 5.99 × 10^-6 Molar, 5.99 µM
  Infected culture response: 65.3% and 90.9%
HIV-1; CEM-V, 6.00 × 10^-7 Molar, 0.6 µM
  Infected culture response: 8.3%
HIV-1; CEM-V, 6.01 × 10^-8 Molar, 0.0601 µM
  Infected culture response: 8.7%
HIV-1; CEM-Z
  Conclusion: ACTIVE
HIV-1; CEM-Z, 1.79 × 10^-6 Molar, 1.79 µM
  Infected culture response: 47.1% and 26.4%
HIV-1; CEM-Z, 5.65 × 10^-5 Molar, 56.5 µM
  Infected culture response: 93.1%
HIV-1; CEM-Z, 5.66 × 10^-6 Molar, 5.66 µM
  Infected culture response: 58.3%
HIV-1; Human immunodeficiency virus 1, CEM-V, read-out: Infected culture response
  viability at 17.9 µM: 92.2%
HIV-1; Human immunodeficiency virus 1, CEM-V, 1.79 × 10^-6 Molar, read-out: Infected culture response
  viability at 1.79 µM: 8%
HIV-1; Human immunodeficiency virus 1, CEM-V, 1.79 × 10^-7 Molar, read-out: Infected culture response
  viability at 0.179 µM: 10.3%
HIV-1; Human immunodeficiency virus 1, CEM-V, 1.89 × 10^-4 Molar, read-out: Infected culture response
  viability at 189 µM: 86%
HIV-1; Human immunodeficiency virus 1, CEM-V, 1.89 × 10^-5 Molar, read-out: Infected culture response
  viability at 18.9 µM: 100%
HIV-1; Human immunodeficiency virus 1, CEM-V, 1.89 × 10^-6 Molar, read-out: Infected culture response
  viability at 1.89 µM: 18.2%
HIV-1; Human immunodeficiency virus 1, CEM-V, 1.90 × 10^-7 Molar, read-out: Infected culture response
  viability at 0.19 µM: 14%
HIV-1; Human immunodeficiency virus 1, CEM-V, 5.66 × 10^-6 Molar, read-out: Infected culture response
  viability at 5.66 µM: 31.1%
HIV-1; Human immunodeficiency virus 1, CEM-V, 5.67 × 10^-7 Molar, read-out: Infected culture response
  viability at 0.567 µM: 10.6%
HIV-1; Human immunodeficiency virus 1, CEM-V, 5.68 × 10^-8 Molar, read-out: Infected culture response
  viability at 0.0568 µM: 10.1%
HIV-1; Human immunodeficiency virus 1, CEM-V, 5.98 × 10^-5 Molar, read-out: Infected culture response
  viability at 59.8 µM: 79.7%
HIV-1; Human immunodeficiency virus 1, CEM-V, 6.00 × 10^-7 Molar, read-out: Infected culture response
  viability at 0.6 µM: 15.5%
HIV-1; Human immunodeficiency virus 1, CEM-V, 6.01 × 10^-8 Molar, read-out: Infected culture response
  viability at 0.0601 µM: 14.7%
HIV-1; Human immunodeficiency virus 1, CEM-V, dose printed 1.79 × 10^-6 Molar in the line between 5.66 × 10^-6 and 5.65 × 10^-5, read-out: Infected culture response
  viability at 1.79 µM: 53.1%
HIV-1; Human immunodeficiency virus 1, CEM-Z, read-out: Infected culture response
  viability at 17.9 µM: 85.7%
HIV-1; Human immunodeficiency virus 1, CEM-Z, 5.65 × 10^-5 Molar, read-out: Infected culture response
  viability at 56.5 µM: 92.3%
HIV-1; Human immunodeficiency virus 1, CEM-Z, 5.66 × 10^-6 Molar, read-out: Infected culture response
  viability at 5.66 µM: 74.5%
HIV-1; Human immunodeficiency virus 1, CEM-Z, dose printed 1.79 × 10^-6 Molar in the line between 5.66 × 10^-6 and 5.65 × 10^-5, read-out: Infected culture response
  viability at 1.79 µM: 91.3%
[1]; 1.79 × 10^-5 Molar
  viability at 17.9 µM: 101%
[1]; 1.79 × 10^-6 Molar
  viability at 1.79 µM: 97.9%
[1]; 1.79 × 10^-7 Molar
  viability at 0.179 µM: 101%
[1]; 5.65 × 10^-5 Molar
  viability at 56.5 µM: 103%
[1]; 5.66 × 10^-6 Molar
  viability at 5.66 µM: 98.7%
[1]; 5.67 × 10^-7 Molar
  viability at 0.567 µM: 99.6%
[1]; 5.68 × 10^-8 Molar
  viability at 0.0568 µM: 101%
CEM-Z; 1.78 × 10^-4 Molar, 178 µM
  Uninfected culture response: 72.1%
CEM-Z; 1.79 × 10^-5 Molar, 17.9 µM
  Uninfected culture response: 103.0%
CEM-Z; 1.79 × 10^-6 Molar, 1.79 µM
  Uninfected culture response: 99.7%
CEM-Z; 1.79 × 10^-7 Molar, 0.179 µM
  Uninfected culture response: 102.5%
CEM-Z; 5.65 × 10^-5 Molar, 56.5 µM
  Uninfected culture response: 101.8%
CEM-Z; 5.66 × 10^-6 Molar, 5.66 µM
  Uninfected culture response: 100.0%
CEM-Z; 5.67 × 10^-7 Molar, 0.567 µM
  Uninfected culture response: 99.8%
CEM-Z; 5.68 × 10^-8 Molar, 0.0568 µM
  Uninfected culture response: 104.3%
CEM-Z; uninfected culture (toxicity)
  IC50: > 178 µM
